The IC50 is the point on the concentration scale where inhibition reaches its midpoint.

The source of these data is publication PMC11760621, “Secondary metabolites of Alternaria alternate appraisal of their SARS-CoV-2 inhibitory and anti-inflammatory potentials” (PLOS ONE, 2025).

Data set [1] concerns ACE-2 protein expression in HLMEC. Nature of the data set: Western blot of ACE-2 protein expression in HLMEC. Format: cell-based, human. Particulars: 25 μM, 48 h, western blot vs untreated cells. The method, then: HLMEC cells were seeded, cultured, and incubated with compounds 1–4 for 48h. RIPA buffer (Cell Signaling, Danvers, MA) was employed to obtain the entire-cell protein lysates. Bradford method was used to determine the concentration of protein. Western blot assay was done as previously stated using untreated cells as control. Anti-ACE-2 antibody [EPR24705-45] ab272500 (Abcam, Cambridge, UK) was used.
(§1) An experimental model of HLMEC was applied to study the effects of the endophytic compounds 1–4 on ACE-2 protein expression. Preceding this analysis, the cytotoxic effect of compounds 1–4 was determined on HLMEC using an MTT assay. HLMEC were treated with different dilutions of the test samples (0.39–100 μM) for 48 h. Compounds 1–4 being nontoxic (IC50>100 μM, Table 6).
(A western blot detects proteins with antibodies after separation by electrophoresis.)

In data set [2] the target is ACE-2: SARS-CoV-2 Spike (RBD) (Homo sapiens, UniProt Q9BYF1). Nature of the data set: ACE-2: Spike RBD (SARS-CoV-2) inhibitor screening colorimetric assay. The data set is classed as binding, human; SARS-CoV-2. Particulars: in vitro colorimetric kit; mean ± SD; read-out: IC50, ACE2 spike RBD (SARS-CoV-2) inhibitory effect.
Chain of ACE-2: SARS-CoV-2 Spike (RBD) (Q9BYF1 18-740): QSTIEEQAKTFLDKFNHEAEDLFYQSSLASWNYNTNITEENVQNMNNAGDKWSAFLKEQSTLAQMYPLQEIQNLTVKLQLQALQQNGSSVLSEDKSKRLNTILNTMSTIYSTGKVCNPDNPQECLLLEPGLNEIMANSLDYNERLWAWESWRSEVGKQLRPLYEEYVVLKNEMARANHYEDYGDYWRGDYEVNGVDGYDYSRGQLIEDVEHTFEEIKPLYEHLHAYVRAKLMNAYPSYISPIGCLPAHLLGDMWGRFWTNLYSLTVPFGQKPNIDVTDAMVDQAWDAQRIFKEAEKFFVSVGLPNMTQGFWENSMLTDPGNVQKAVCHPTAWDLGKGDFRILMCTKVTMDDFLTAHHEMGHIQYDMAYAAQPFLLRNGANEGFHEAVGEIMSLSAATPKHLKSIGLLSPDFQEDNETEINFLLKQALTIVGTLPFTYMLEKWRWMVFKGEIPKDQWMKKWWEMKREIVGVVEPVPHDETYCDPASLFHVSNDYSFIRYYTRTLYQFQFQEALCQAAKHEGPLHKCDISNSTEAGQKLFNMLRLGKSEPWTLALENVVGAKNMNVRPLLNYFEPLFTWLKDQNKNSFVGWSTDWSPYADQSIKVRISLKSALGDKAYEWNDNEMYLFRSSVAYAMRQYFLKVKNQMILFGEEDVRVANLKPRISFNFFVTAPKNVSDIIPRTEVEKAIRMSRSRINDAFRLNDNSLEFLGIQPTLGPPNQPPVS
The subject of data set [3] is IL-6 mRNA in LPS-stimulated RAW 264.7 macrophages. Put plainly: IL-6 gene expression (qRT-PCR) in LPS-induced RAW 264.7 cells. Format: cell-based. Conditions: LPS (1 μg/mL)-stimulated RAW 264.7, sub IC50 concentration, relative to LPS control, referenced to Actb. The method, then: (§2) Evaluation of pro-inflammatory cytokines (TNF- α and IL-6) using LPS-induced RAW 264.7 cells. RAW 264.7 macrophage cells were procured from the American Type Culture Collection (Manassas, VA, USA) and grown as previously described. In vitro Toxicology Assay Kit, MTT Based (Sigma-Aldrich, Saint Louis, Missouri, USA) was employed to establish cell viability at concentrations (1–250 μM). Treatment of RAW 264.7 cells and determination of the inhibitory effect of the active compounds at sub IC50 values on TNF- α and IL-6 gene expression in RAW264.7 cells were performed as mentioned before using LPs treated cells as control.
Background: Real-time PCR tracks product formation cycle by cycle.

For data set [4], the system named is Human lung microvascular endothelial cells (HLMEC). Put plainly: MTT cell viability assay in HLMEC. Format: cell-based. Conditions: 48 h, read-out: IC50, viability of HLMEC. The method, then: Human lung microvascular endothelial cells (HLMEC) were acquired from Lonza (Hayward, CA, USA). The cells were seeded in an endothelial cell growth medium (EGM-2 MV) (Lonza, Hayward, CA, USA) at 37°C and 5% CO2. Then, at 5 to 7 passages, the cells were plated in 100 μL/well EGM-2 MV medium in collagen-covered 96-well plates. The cells were grown for 3–5 days to reach the confluent layer. Cell viability was valued by the MTT Cell Growth Assay Kit (Sigma-Aldrich, Steinheim, Germany) using untreated cells as control.
as §1
(Tetrazolium assays rely on reduction of a dye to a coloured formazan, in cell work by metabolically active cells.)

In data set [5] the test system is TNF-α mRNA in LPS-stimulated RAW 264.7 macrophages. Put plainly: TNF-α gene expression (qRT-PCR) in LPS-induced RAW 264.7 cells. Format: cell-based. Particulars: LPS (1 μg/mL)-stimulated RAW 264.7, sub IC50 concentration, relative to LPS control, referenced to Actb. The protocol: as §2
Another data set concerns the target T1, TNF-α: TNFR2 (Homo sapiens, UniProt P01375).
T1 construct: purchased BPS bioscience
Put plainly: TNFR2: TNF-α [Biotinylated] inhibitor screening assay. The data set is classed as binding. Conditions: in vitro kit, mean ± SD. The source says: In vitro TNF-α [Biotinylated] inhibition assay. TNFR2: TNF-α [Biotinylated] inhibitor screening assay kit (BPS bioscience, Cornerstone Court W, Ste B San Diego, CA 92121) was used to screen for the in vitro inhibition of TNF-α binding to tumor necrosis factor receptor 2 (TNFR2) following the manufacturer’s protocol.

Data set [6] can be described thus: Solubility observation of the isolated compound. Conditions: observation on the isolated oil. The data set is classed as physicochemical. The source says: In addition, there were complex multiplet overlapping signals for several hydrogen protons characteristic for different methylene groups laying in the same chemical environment (H- 5’/5’’, H-6’/6’’, H-11’/11’’ and 12’/12’’). […] In addition to two carbonyl carbons, one of which (C-1’/1’’ δC 167.7) is upfield due to its attachment to the aromatic ring while the other is downfield (C-9’/9’’, δC 174.0). The downfield shift of the two-methylene groups 3’/3’’ (δC, 68.2) and 7’/7’’ (δC 66.7) confirm their attachment to O-C = O. Moreover, the structure contained only one methine group at δC 38.7 (CH- 4’/4’’) and two methyl groups CH3-13’/13’’ and 14’/14’’ at δC 10.9 and 14.0, respectively. Furthermore, there were another five CH2 groups at δC 30.4, 23.7, 34.4, 25.0, and 29.1 for C-5’, 6’, 10’,11’, and 12’, respectively. H-H-COSY (Fig 1) established the correlation between the aromatic ring’s protons and that between the side chains’ protons. Additionally, HMBC data (Fig 1) confirmed the substitution of the aromatic ring through the correlation from H-2/5 ([…]) to C-3/4 (δC 130.9) and that between H-3/4 (δC 7.54) and C-2/5 (δC 128.8). The connectivity of the side chain to the aromatic ring at C-1 and C-6 was established through the correlation from H-2/5 (δH 7.72) to C-1`/1” (δC 167.7). […]

Where [7] appears, read: read-out: IC50, TNF-α: TNFR2 inhibitory effect.

Each structure is given as a SMILES string. Read-outs that look alike come from different tables or passages of the source.

T1 sequence (P01375 77-233 limits assumed): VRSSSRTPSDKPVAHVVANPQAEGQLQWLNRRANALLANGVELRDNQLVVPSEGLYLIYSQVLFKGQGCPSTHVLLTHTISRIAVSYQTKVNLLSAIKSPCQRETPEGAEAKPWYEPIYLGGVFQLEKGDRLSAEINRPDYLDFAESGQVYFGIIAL

Take `COc1cc(O)c2c(=O)oc3cc(O)cc(C)c3c2c1` [Compound 4, alternariol-5-O-methyl ether]: the “ACE2% inhibition (ACE2 protein expression)” value (“ACE2% inhibition” below) in data set [1] is reported as 50.85 ± 4.34%. For the same compound, the IC50 is 11.7 ± 0.34 µM in data set [2]; greater than 100 µM in data set [4]; 4.97 ± 0.28 µM against TNF-α: TNFR2 (IC50, TNF-α: TNFR2 inhibitory effect). The “IL-6 mRNA expression fold change” value in data set [3] is listed as 0.14 ± 0.01. Also, the “TNF-α mRNA expression fold change” value in data set [5] was 0.28 ± 0.02.

On to `CC1CCC2C(C1)c1ccccc1C1CCCCC(C)N12` (centres unmarked) [Compound 1, altenuline], for which the “ACE2% inhibition” value in data set [1] was found to be 49.65 ± 3.06 %. Also, the results for the IC50 (in data set [2]; in data set [4]; at TNF-α: TNFR2 (setting [7])) were 15.5 ± 0.45 µM, greater than 100 µM and 8.7 ± 0.34 µM, respectively.

In the case of `CCCCC(=O)OCCCC(C)COC(=O)c1ccccc1C(=O)OCC(C)CCCOC(=O)CCCC` (centres unmarked) [Compound 2, phthalic acid bis (7’/7’’ pentyloxy) isohexyl ester], the solubility in water result in data set [6] is on record as “insoluble in water”. The “ACE2% inhibition” value in data set [1] amounted to 70.51± 4.80%. Moreover, the figures for the IC50 (in data set [2]; in data set [4]; at TNF-α: TNFR2 (setting [7])) were 10.4 ± 0.25 µM, greater than 100 µM and 5.4 ± 0.33 µM, respectively. Moreover, in data set [3], the “IL-6 mRNA expression fold change” value was 0.30 ± 0.02. In data set [5], the “TNF-α mRNA expression fold change” value was determined as 0.45 ± 0.07.

Take `COc1cc(O)c2c(=O)oc3c(c2c1)C(C)CC3=O` (centres unmarked) [Compound 3, 1-deoxyrubralactone]: the “ACE2% inhibition” value in data set [1] amounted to 29.91 ± 4.26 %. In addition, the IC50 in data set [2] is 12.5 ± 0.46 µM; in data set [4] it was greater than 100 µM.
